Literature values as cited in US20070196463A1, “Enteric Soft Gelatin Capsule Containing Esomerpazole And Method Of Preparation” (Natco Pharma Limited, priority 2004, published 2007).

COc1ccc2nc([S@@+]([O-])Cc3ncc(C)c(OC)c3C)[nH]c2c1 [esomeprazole]
activity of the enantiomer in human testing (human testing of enantiomers of omeprazole): more active
inter-individual variability (human, due to more consistent pharmacokinetics): reduced
